According to the NIST ThermoML archive (doi:10.1021/je900048r):
Where “and” joins values, the source holds several entries; their conditions need not be identical. Equal values may be shown once. Numbers after ± are expanded uncertainties.

What was measured:
[1] = Liquid, Other PVT measurement
[2] = xn = mol fraction of the nth substance listed; settings: Liquid, Other PVT measurement, x2 = 0

CCCCn1cc[n+](C)c1.F[B-](F)(F)F [1-butyl-3-methylimidazolium tetrafluoroborate]
mass density, [1]
Settings	100 kPa	200 kPa	600 kPa	1000 kPa	1400 kPa	1800 kPa	2000 kPa
293.15 K	1198 ± 12 kg/m3	–	–	–	–	–	–
313.15 K	1183 ± 12 kg/m3	1185 ± 12 kg/m3	1186 ± 12 kg/m3	1186 ± 12 kg/m3	1186 ± 12 kg/m3	1187 ± 12 kg/m3	1186.93 ± 12 kg/m3 and 1187 ± 12 kg/m3
353.15 K	–	1159 ± 12 kg/m3	1160 ± 12 kg/m3	1160 ± 12 kg/m3	1160 ± 12 kg/m3	1161 ± 12 kg/m3	1160.82 ± 12 kg/m3 and 1161 ± 12 kg/m3
393.15 K	–	–	1135 ± 11 kg/m3	1135 ± 11 kg/m3	1135 ± 11 kg/m3	1136 ± 11 kg/m3	1135.92 ± 11 kg/m3 and 1136 ± 11 kg/m3
433.15 K	–	–	–	1112 ± 11 kg/m3	1112 ± 11 kg/m3	1113 ± 11 kg/m3	1113 ± 11 kg/m3
473.15 K	–	–	–	–	–	1086 ± 11 kg/m3	1087 ± 11 kg/m3

CC#N [acetonitrile]
mass density [kg/m3], [1]
Settings	200 kPa	600 kPa	1000 kPa	1400 kPa	1800 kPa	2000 kPa
313.15 K	755 ± 8	755 ± 8	756 ± 8	756 ± 8	757 ± 8	757 ± 8
353.15 K	710 ± 7	711 ± 7	711 ± 7	711 ± 7	712 ± 7	713 ± 7
393.15 K	–	664 ± 7	664 ± 7	665 ± 7	666 ± 7	666 ± 7
433.15 K	–	–	611 ± 6	612 ± 6	614 ± 6	614 ± 6
473.15 K	–	–	–	–	550 ± 6	552 ± 6

CC#N [acetonitrile] + CCCCn1cc[n+](C)c1.F[B-](F)(F)F
mass density [kg/m3], [2]
Settings	200 kPa	600 kPa	1000 kPa	1400 kPa	1800 kPa	2000 kPa
313.15 K	755 ± 8	755 ± 8	756 ± 8	756 ± 8	757 ± 8	757 ± 8
353.15 K	710 ± 7	711 ± 7	711 ± 7	711 ± 7	712 ± 7	713 ± 7
393.15 K	–	664 ± 7	664 ± 7	665 ± 7	666 ± 7	666 ± 7
433.15 K	–	–	611 ± 6	612 ± 6	614 ± 6	614 ± 6
473.15 K	–	–	–	–	550 ± 6	552 ± 6

CCO [ethanol]
mass density [kg/m3], [1]
Settings	200 kPa	600 kPa	1000 kPa	1400 kPa	1800 kPa	2000 kPa
313.15 K	770 ± 8	770 ± 8	770 ± 8	771 ± 8	771 ± 8	772 ± 8
353.15 K	734 ± 7	734 ± 7	735 ± 7	735 ± 7	736 ± 7	738 ± 7
393.15 K	–	691 ± 7	692 ± 7	693 ± 7	694 ± 7	694 ± 7
433.15 K	–	–	–	638 ± 6	639 ± 6	639 ± 6

CCO [ethanol] + CCCCn1cc[n+](C)c1.F[B-](F)(F)F
mass density [kg/m3], [2]
Settings	200 kPa	600 kPa	1000 kPa	1400 kPa	1800 kPa	2000 kPa
313.15 K	770 ± 8	770 ± 8	770 ± 8	771 ± 8	771 ± 8	772 ± 8
353.15 K	734 ± 7	734 ± 7	735 ± 7	735 ± 7	736 ± 7	738 ± 7
393.15 K	–	691 ± 7	692 ± 7	693 ± 7	694 ± 7	694 ± 7
433.15 K	–	–	–	638 ± 6	639 ± 6	639 ± 6

O [water]
[1]
Settings	mass density [kg/m3]
313.15 K, 200 kPa	993 ± 10
313.15 K, 2000 kPa	995 ± 10
353.15 K, 200 kPa	975 ± 10
353.15 K, 400 kPa	975 ± 10
373.15 K, 800 kPa	963 ± 10
373.15 K, 1200 kPa	963 ± 10
393.15 K, 200 kPa	949 ± 10
393.15 K, 400 kPa	949 ± 10
393.15 K, 1600 kPa	950 ± 10
393.15 K, 2000 kPa	950 ± 10
433.15 K, 800 kPa	912 ± 9
433.15 K, 1200 kPa	912 ± 9
473.15 K, 1600 kPa	871 ± 9
473.15 K, 2000 kPa	871 ± 9
